{"source": "patent US6465476B1", "about": "“Immuno-modulator exhibiting antimicrobial and anti-mycrobacterial activities, method for producing the same and pharmaceutical preparation” (priority 1997, dated 2002)", "test_system": "leprosy mycobacteria", "experiment": "Example 3, patient I., lepromatose-typed leprosy, combination treatment", "assay_type": "in vivo, human", "protocol": "They had been ill for 8 years. BIN=66.8-10.8-5.5 where BIN means bacteriological index. […] HI=5,4 where HI means histological index. The patient was ordered the following treatment: 200 mg of isophonum internally twice a day, 200 mg of diuciphonum i.m. and 100 mg dimocifon internally twice a day.\nAfter 8 months of treatment the agent of leprosy vanished in the scrape of nasal mucosa, BIN was 8.3-14.2-4.2, the immunologic parameters normalized. Atfer a year of treatment many of the infiltrates resolved and the other sharply diminished in size and became soft and elastic with their colour changed from rust-brown to cyanotic. BIN became 5.7-4.8-5.3.\nThere came lymphocytes in moderate numbers. […] The patient continues to undergo treatment.", "key": {"[1]": {"settings": "after a year, combination with diuciphonum and dimocifon"}}, "data": [{"smiles": "Cc1[nH]c(=O)[nH]c(=O)c1S(=O)(=O)NNC(=O)c1ccncc1.O", "note": "[Isophonum, N-(6-methyl-2,4-dioxo-1,2,3,4-tetrahydro-5-pyrimidinsulfon)-N′-isonicotinoylhydrazide hydrate]", "values": [{"measurement": "HI (histological index)", "setting": "[1]", "result": 4.8}, {"measurement": "amount of B-lymphocytes", "setting": "[1]", "result": 12, "unit": "%"}, {"measurement": "amount of T-helpers", "setting": "[1]", "result": 66, "unit": "%"}, {"measurement": "amount of T-lymphocytes", "setting": "[1]", "result": 85, "unit": "%"}, {"measurement": "immunoregilatory index", "setting": "[1]", "result": 3.4}, {"measurement": "total number of lymphocytes", "setting": "[1]", "result": 51, "unit": "%"}, {"measurement": "HI (histological index)", "setting": "patient I., on hospitalization", "result": "5,4"}]}]}
